In patent US6713077B1, “Control of shoot/foliar feeding pests with pesticide seed treatments” (Monsanto Technology, LLC, priority 1999, dated 2004):
Read-outs that look alike come from different tables or passages of the source.

Assays:
black cutworm larvae [1] = assay: Example 8: stand reduction of corn by black cutworm, RAZE versus WARRIOR T seed treatment; format: in vivo; conditions: band w/ incorporation 30 (grams/hectare)
Protocol: A lambda-cyhalothrin seed treatment formulation was prepared from WARRIOR T 11.4 CS formulation (Zeneca Ag Products, Wilmington, Del.), as described in Example 1. Also, a tefluthrin seed treatment formulation was prepared from RAZE […] formulation (available from Wilbur-Ellis Co.), by the same method. Each of these seed treatment formulations were applied for one minute at room temperature to twenty-five grams of Pioneer corn seed (Cultivar PN3394) in a rotostatic seed treater at the treatment rates noted in Table 9, below. The treated seeds were allowed to sit uncapped for four to twenty-four hours before planting.
Treated and untreated seeds (Pioneer hybrid PN3394) were planted in a soil mix consisting of Dupo silt loam, 30% Perlite, 20% coarse sand (WB-10 grade) in six groups of tubs (20 in. L×15 in. W×8 in. D). Twelve seeds were planted per tub and three tubs were planted for each treatment regimen. Soil applications of FORCE 3GR, which contains 3% tefluthrin as the active ingredient, were used for two sets of tubs containing untreated seeds. […]
(§1) The corn plants were infested at 12 DAP, which corresponds to late growth stage 11 by placing two black cutworm larvae at 3/4 instar on the soil surface near the base of the plant. […] The percent stand reduction due to plant cutting was calculated by dividing the number of cut plants into the number of plants present at infestation.

black cutworm larvae [2] = assay: Example 5: stand reduction of corn by black cutworm, lambda cyhalothrin or tefluthrin seed treatment; format: in vivo; conditions: band w/ incorporation 30 (grams/hectare)
Protocol: A lambda-cyhalothrin seed treatment formulation was prepared from the WARRIOR T insecticide and corn seed was prepared and treated as described in Example 1, except that the treatment levels were 125, 228 and 358 gm active ingredient/100 kg seed. A tefluthrin seed treatment formulation was also prepared from RAZE 2.5 FS, which contains tefluthrin as the active ingredient, into water as a carrier. Treated and untreated seeds were planted and cultivated as described as described in Example 1. Again, FORCE 3GR was applied and incorporated into a 5 inch band on the soil surface at the time of planting. The tubs were overhead irrigated until the plants were infested with black cutworm larvae.
The corn plants were infested at 12 DAP, as described in Example 1. Plants were rated at 10 days after infestation (DAI) for the number of cut plants. The percent stand reduction due to plant cutting was calculated by dividing the number of cut plants into the number of plants present at infestation.

[3] = cited from earlier work
[4] = temperature not given; cited from earlier work
black cutworm larvae [5] = assay: Example 7: stand reduction of corn by black cutworm, bifenthrin, lambda-cyhalothrin and tefluthrin seed treatment; format: in vivo; conditions: seed treatment 209 gm AI/100 kg of seed
Protocol: A lambda-cyhalothrin seed treatment formulation was prepared from WARRIOR T 11.4 CS formulation (Zeneca Ag Products, Wilmington, Del.), as described in Example 1. A seed treatment formulation was also prepared by the method as described in Example 1, except from CAPTURE® 2 EC (bifenthrin; available from FMC). Also, a seed treatment formulation was prepared from RAZE 2.5 FS formulation (available from Wilbur-Ellis Co.), containing 26.8% tefluthrin. Each of these seed treatment formulations were applied for one minute at room temperature to twenty-five grams of Pioneer corn seed (Cultivar PN3394) in a rotostatic seed treater at the treatment rates noted in Table 8, below. The treated seeds were allowed to sit uncapped for four to twenty-four hours before planting.
Treated and untreated seeds (Pioneer hybrid PN3394) were planted in a soil mix consisting of Dupo silt loam, 30% Perlite, 20% coarse sand (WB-10 grade) in six groups of tubs (20 in. L×15 in. W×8 in. D). Twelve seeds were planted per tub and three tubs were planted for each treatment regimen. […]
as §1

| Structure (SMILES) | STAND REDUCTION (%, 10 days after infestation) (black cutworm larvae [1]) | STAND REDUCTION (%, 10 days after infestation) (black cutworm larvae [2]) | Vapor pressure ([3]; 20° C.) [mPa] | Water solubility [4] [µg/mL] | STAND REDUCTION (%, 10 days after infestation) (black cutworm larvae [5]) | Vapor pressure ([3]; 25° C.) [mPa] |
| --- | --- | --- | --- | --- | --- | --- |
| Cc1c(F)c(F)c(COC(=O)[C@@H]2[C@H](/C=C(\Cl)C(F)(F)F)C2(C)C)c(F)c1F (racemic) [Tefluthrin, (2,3,5,6-tetrafluoro-4-methylphenyl)-methyl-(1 alpha, 3 alpha)-(Z)-(±)-3-(2-chloro-3,3,3-trifluoro-1-propenyl)-2,2-dimethylcyclopropanecarboxylate] | total protection | total protection | 8 | – | – | – |
| Cc1c(COC(=O)C2C(C=C(Cl)C(F)(F)F)C2(C)C)cccc1-c1ccccc1 (stereo not drawn) [Bifenthrin, (2-methyl [1,1′-biphenyl]-3-yl)methyl 3-(2-chloro-3,3,3-trifluoro-1-propenyl)-2,2-dimethyl-cyclopropanecarboxylate] | – | – | – | 0.1 | total protection | 0.024 |
